Measurements as given in US8288375B2, “Fungicidal bicyclic pyrazoles” (E.I. du Pont de Nemours and Company, priority 2007, dated 2012).

How the values were obtained:
Format in all cases: in vivo
Septoria tritici = experiment: Test E: wheat leaf blotch, test suspension sprayed on wheat seedlings, disease rating; settings: 200 ppm test suspension; for pest or weed control at 200 ppm: Zymoseptoria tritici, 504 h;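 on all read-outs here: 200 ppm unless marked * meaning 40 ppm or ** meaning 10 ppm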
[1] = tested on: Erysiphe graminis f. sp. tritici; experiment: Test A: wheat powdery mildew, test suspension sprayed on wheat seedlings, disease rating; settings: 200 ppm test suspension, 100 = 100% disease control, 0 = no control; for pest or weed control at 200 ppm: Blumeria graminis, 192 h
Septoria nodorum = experiment: Test D: wheat glume blotch, test suspension sprayed on wheat seedlings, disease rating; settings: 200 ppm test suspension; for pest or weed control at 200 ppm: Parastagonospora nodorum, 216 h
[2] = tested on: Puccinia recondite f sp. tritici; experiment: Test B: wheat leaf rust, test suspension sprayed on wheat seedlings, disease rating; settings: 200 ppm test suspension; for pest or weed control at 200 ppm: Puccinia, 192 h;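 on all read-outs here: 200 ppm unless marked * meaning 40 ppm or ** meaning 10 ppm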
Phytophthora infestans = experiment: whole plant or invertebrate; settings: for Test J disease control rating: 200 ppm test suspension; for pest or weed control at 200 ppm: Phytophthora infestans, in Solanum lycopersicum, 120 h, read-out: Test J disease control rating
Pythium aphanidermatum = experiment: Test L: bluegrass pythium blight, test suspension sprayed on bluegrass seedlings, disease rating; settings: 200 ppm test suspension; for pest or weed control at 200 ppm: Pythium aphanidermatum, 120 h;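 on all read-outs here: 200 ppm unless marked * meaning 40 ppm or ** meaning 10 ppm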
Fusarium graminearum = experiment: whole plant or invertebrate; settings: for Test C disease control rating: 200 ppm test suspension; for pest or weed control at 200 ppm: Fusarium graminearum, in Triticum aestivum, 192 h, read-out: Test C disease control rating

SMILES | Test E disease control rating (Septoria tritici) [%] | Test A disease control rating [1] [%] | Test D disease control rating (Septoria nodorum) [%] | Test B disease control rating [2] [%] | Test J disease control rating (Phytophthora infestans) [%] | Test L disease control rating (Pythium aphanidermatum) [%] | Test C disease control rating (Fusarium graminearum) [%] | pest or weed control at 200 ppm (Septoria tritici) [%] | pest or weed control at 200 ppm [1] [%] | pest or weed control at 200 ppm (Septoria nodorum) [%] | pest or weed control at 200 ppm [2] [%] | pest or weed control at 200 ppm (Phytophthora infestans) [%] | pest or weed control at 200 ppm (Pythium aphanidermatum) [%] | pest or weed control at 200 ppm (Fusarium graminearum) [%]
CC(CO)Nc1nccc(-c2c(-c3ccc(F)cc3)nn3c2CSCC3)n1 (centres unmarked) [compound 111] | 31 | 21 | 64 | 95 | 80 | 100 | 95 |  |  |  |  |  |  | 
C[C@H](CO)Nc1nccc(-c2c(-c3ccc(F)cc3)nn3c2CCOC3)n1 [compound 113] | 91 | 0 | 78 | 97 | 96 | 100 | 99 |  |  |  |  |  |  | 
CC(C)Nc1nccc(-c2c(-c3ccsc3)nn3c2CCCC3)n1 [compound 43] | 96 | 0 | 90 | 92 | 97 | 100 | 98 |  |  |  |  |  |  | 
Cc1ccccc1-c1nn2c(c1-c1ccnc(NC(C)C)n1)CCCC2 [compound 45] | 97 | 41 | 60 | 89 | 76 | 85 | 0 |  |  |  |  |  |  | 
Cc1cc(-c2nn3c(c2-c2ccnc(NC(C)C)n2)COCC3)ccc1F [compound 120] | 95 | 86 | 100 | 90 | 88 | 98 | 100 |  |  |  |  |  |  | 
Fc1ccc(-c2nn3c(c2-c2ccnc(NC4CCOCC4)n2)CCCC3)cc1 [compound 49] | 90 | 76 | 100 | 99 | 100 | 99 | 100 |  |  |  |  |  |  | 
Fc1ccc(-c2nn3c(c2-c2ccnc(NCC4CCCO4)n2)CCCC3)cc1 (centres unmarked) [compound 34] | 94 | 96 | 100 | 100 | 91 | 100 | 98 |  |  |  |  |  |  | 
CC(C)Nc1nccc(-c2c(-c3ccccc3F)nn3c2CCCC3)n1 [compound 36] | 96 | 0 | 96 | 91 | 90 | 99 | 99 |  |  |  |  |  |  | 
CC(C)Nc1nccc(-c2c(-c3ccc(F)cc3)nn3c2CS(=O)(=O)CC3)n1 [Compound 114, 4-[2-(4-fluorophenyl)-6,7-dihydro-5,5-dioxido-4H-pyrazolo[5,1-c][1,4]thiazin-3-yl]-N-(1-methylethyl)-2-pyrimidinamine] |  |  |  |  |  |  |  | 86 | 57 | 73 | 100 | 100 | 100 | 94
Fc1ccc(-c2nn3c(c2-c2ccnc(Nc4ccc(OC(F)(F)F)cc4)n2)CCCC3)cc1 [compound 60] | 71 | 0 | 64 | 74 | 9 | 0 | 91 |  |  |  |  |  |  | 
CC(CO)Nc1nccc(-c2c(-c3ccsc3)nn3c2COCC3)n1 (centres unmarked) [compound 124] | 54 | 0 | 60 | 86 | 66 | 99 | 98 |  |  |  |  |  |  | 
CC(=O)Nc1nccc(-c2c(-c3ccc(F)cc3)nn3c2CCCC3)n1 [Compound 52, N-[4-[2-(4-fluorophenyl)-4,5,6,7-tetrahydropyrazolo[1,5-a]pyridin-3-yl]-2-pyrimidinyl]acetamide] |  |  |  |  |  |  |  | 98 | 0 | 97 | 100 | 95 | 100 | 99
CC(C)CNc1nccc(-c2c(-c3ccc(F)cc3)nn3c2CCCC3)n1 [compound 29] | 85 | 0 | 98 | 95 | 47 | 0 | 100 |  |  |  |  |  |  | 
COCC(C)Nc1nccc(-c2c(-c3ccccc3F)nn3c2CCC3)n1 (centres unmarked) [compound 96] | 62 | 0 | 0 | 19 | 98 | 83 | 96 |  |  |  |  |  |  | 
Cc1cc(-c2nn3c(c2-c2ccnc(NC(C)CO)n2)COCC3)ccc1F (centres unmarked) [compound 123] | 31 | 0 | 0 | 90 | 91 | 100 | 99 |  |  |  |  |  |  | 
Fc1cccc(-c2nn3c(c2-c2ccnc(NC4CC4)n2)CCC3)c1 [compound 103] | 100 | 85 | 99 | 95 | 99 | 100 | 99 |  |  |  |  |  |  | 
CC(C)Nc1nccc(-c2c(-c3cccc(F)c3)nn3c2CCC3)n1 [compound 102] | 100 | 73 | 97 | 92 | 96 | 99 | 100 |  |  |  |  |  |  | 
CC(C)(CO)Nc1nccc(-c2c(-c3ccc(F)cc3)nn3c2CCCC3)n1 [compound 30] | 93 | 0 | 69 | 91 | 47 | 0 | 92 |  |  |  |  |  |  | 
CC(CO)Nc1nccc(-c2c(-c3ccccc3)nn3c2COCC3)n1 (centres unmarked) [compound 122] | 80 | 0 | 73 | 96 | 99 | 100 | 99 |  |  |  |  |  |  | 
C[Si](C)(C)CNc1nccc(-c2c(-c3ccc(F)cc3)nn3c2CCCC3)n1 [compound 35] | 100 | 0 | 99 | 99 | 67 | 0 | 99 |  |  |  |  |  |  | 
